US12578273B2, “Ph-reversible leuco-BODIPY probe for in situ visualization of extracellular vesicles and their secretion from living cells” (The Chinese University of Hong Kong, priority 2021, dated 2026)

Legend:
Type in all cases: cell-based
[1] = system: HEK293 cells that express GFP-tagged CD81; assay: Confocal imaging of EVs or precursor EVs (colocalization of BODIPY with GFP-tagged CD81); settings: 30 min
Procedure: (§1) Pre-seeded in 35-mm confocal dishes (SPL Life Sciences, Pocheon, South Korea), cells were grown to the desired confluence before transfection. The transfection medium, formulated in 1 mL of OptiMEM (Gibco, Waltham, MA), contains 7.5 μL of Lipofectamine 3000 (Invitrogen) and either 2.5 μg/mL GFP-CD81 or EGFP-tubulin-6 plasmids. After incubating the cells with the transfection medium for 4 h, the cells were switched to 2 mL of plasmid-free complete DMEM for 2 d. After that, the transfected cells were incubated with leuco-BODIPY for further confocal imaging.
(§2) Confocal imaging of EVs or precursor EVs To prepare the stock of the probe for our cell-based experiments, BODIPY was pre-dissolved in 100% DMSO (2 mM). After dissolution, the probe predominantly assumes the leuco-BODIPY form, as evidenced by its light-yellow color. Cells that express marker proteins of interest (i.e., GFP-tagged CD81 or EGFP-tagged tubulin-6) were pre-seeded in 35-mm confocal dishes. After removing the culture medium, the transfected cells were incubated with 1 mL of 2 μM leuco-BODIPY [dissolved in phenol red-free DMEM (Gibco) with […] (Invitrogen) for solubilization] for 30 min. The EVs in the medium or precursor EVs inside cells were imaged under a Leica SP8 confocal microscope with a 63× objective. The excitation wavelengths of the GFP-tagged proteins and BODIPY were 488 nm and 575 nm, respectively. The emission wavelengths of the GFP-tagged proteins and BODIPY were 495-525 nm and 585-710 nm, respectively. All images were taken at the same laser settings.
(§3) Then, we seeded HeLa, A549, or HEK293 cells that express GFP-tagged CD81 in a confocal dish and incubated the cells with phenol red-free medium containing 2 μM leuco-BODIPY and 0.1% DMSO for 30 min. Note that this probe is predominantly in its leuco-BODIPY form when dissolved in DMSO, as evidenced by its light-yellow color. We obtained confocal images of the cell-seeded medium without harvesting the EVs or rinsing the cells (FIGS. 2A, 30-31). Representative images of their extracellular space depict granular or spherical pockets of fluorescence from BODIPY (red) amidst a dark background. […] The fluorescent pockets of BODIPY are submicron-sized or micron-sized, larger than the reported sizes of exosomes (50-200 nm).^36 As the resolution limit of confocal microscopy may overestimate the size of EVs, we isolated EVs from the cell-seeded medium for nanoparticle tracking analysis (NTA; FIG. 2B). The hydrodynamic size distribution of the EVs lies between about 50 nm and about 400 nm, with peak EV diameters of 151 nm, 104 nm, and 156 nm for HeLa, A549, and HEK293 cells, respectively. As these peak EV sizes corroborate the typical sizes of exosomes, we conclude that the EVs detected are mostly exosomes, with a smaller portion of larger ectosomes, clustered exosomes, or extracellular MVBs (FIGS. 4A-4C).
(§4) Next, we attempted to use our probe for imaging intracellular precursor EVs before their secretion to the extracellular milieu. Again, we added leuco-BODIPY (dissolved in DMSO) to culture medium seeded with HeLa, A549, or HEK293 cells that express GFP-tagged CD81 for 30 min (FIG. 3). […] Contrarily, the overlap between BODIPY and GFP-CD81 fluorescence in the cytoplasm is moderate, characterized by Pearson's colocalization coefficients of 0.72, 0.66, and 0.63 for HeLa, A549, and HEK293 cells, respectively. As a negative control, we captured confocal images of the three cell lines but without adding leuco-BODIPY to the medium.

[2] = system: A549 cells that express GFP-tagged CD81; assay: as above; settings: 30 min
Procedure: as §1, §2, §3, §4

[3] = system: EVs secreted by HeLa cells; assay: Estimation of the fluorescence signal per EV; settings: 5 μM leuco-BODIPY, 30 min, excitation 584 nm, emission 612 nm, net fluorescence divided by number of EVs (NTA)
Procedure: (§5) Cells were pre-seeded in a 96-well plate in complete DMEM without phenol red. During the experiment, 200 μL of either fresh complete DMEM without phenol red or 5 μM leuco-BODIPY formulated in fresh complete DMEM without phenol red was added to the cells. After 30 min, the medium was collected and centrifuged for 10 min at 200×g to remove any dye-stained cell debris. The fluorescence signal in the medium was measured by a fluorescent plate reader (ThermoFisher Fluoroskan Ascent) at an excitation wavelength of 584 nm and emission wavelength of 612 nm. The net fluorescence in the dye-treated EV sample was determined by subtracting the background fluorescence of the untreated EV sample from the fluorescence of the dye-treated EV sample. Complete DMEM without phenol red was also used as a control to determine the background fluorescence of the blank culture medium. After the microplate reader experiment, each EV sample was made up to a total of 1 mL by adding DMEM without phenol red, followed by injection into a Malvern Nanosight NS500 instrument for measuring the total number of EVs in the sample. […] The fluorescence signal per EV was estimated by dividing (1) the net fluorescence (with background subtraction) of the EV sample as measured by the microplate reader by (2) the number of EVs in the sample as measured by NTA.
(§6) Moreover, we incubated the three cell types with our probe for 30 min, isolated the EVs secreted to the culture medium, centrifuged the collected medium to remove any dye-stained cell fragments, and confirmed the detection of fluorescence in the isolated EVs (Table 1). By contrast, for the EVs isolated from the same cell types under the same culture conditions but without treatment by our probe, the fluorescence detected was at the background level of blank culture medium.
(§7) Table 1: Estimate of the number of signals per EV. The fluorescence signal per EV is expressed in arbitrary units (a.u.), a relative value that highly depends on pH, dye concentration, and laser power. […]

[4] = system: EVs secreted by HEK293 cells; assay: Estimation of the fluorescence signal per EV; settings: 5 μM leuco-BODIPY, 30 min, excitation 584 nm, emission 612 nm, net fluorescence divided by number of EVs (NTA)
Procedure: as §5, §6, §7

[5] = system: EVs secreted by A549 cells; assay: Estimation of the fluorescence signal per EV; settings: 5 μM leuco-BODIPY, 30 min, excitation 584 nm, emission 612 nm, net fluorescence divided by number of EVs (NTA)
Procedure: as §5, §6, §7

[6] = extracellular space (CD81-enriched exosomes), 2 μM, no rinsing

`CCOC(=O)C(=Cc1ccc2n1[B-](F)(F)n1c(C=C(C(=O)OCC)C(=O)OCC)ccc1C2(OC)c1ccncc1)C(=O)OCC` [leuco-BODIPY] was tested, and the “Pearson's colocalization coefficient between BODIPY and CD81-GFP fluorescence” value [1, 6] was 0.94, the “Pearson's colocalization coefficient between BODIPY and GFP-CD81 fluorescence” value ([1]; in the cytoplasm) was 0.63 and the “Pearson's colocalization coefficient between BODIPY and GFP-CD81 fluorescence” value ([1]; on the pseudopodia) was 0.86. For the same compound, the “Pearson's colocalization coefficient between BODIPY and CD81-GFP fluorescence” value [2, 6] was 0.85, the “Pearson's colocalization coefficient between BODIPY and GFP-CD81 fluorescence” value ([2]; in the cytoplasm) was 0.66 and the “Pearson's colocalization coefficient between BODIPY and GFP-CD81 fluorescence” value ([2]; on the pseudopodia) was 0.90. The “Mean fluorescence signal per EV” value [3] was 4.63 × 10^−7 a.u, the “Mean fluorescence signal per EV” value [4] was 1.67 × 10^−6 a.u and the “Mean fluorescence signal per EV” value [5] was 4.17 × 10^−7 a.u.
